Data: ChEMBL document CHEMBL4417635, “2-hydroxyarylamide derivative or pharmaceutically acceptable salt thereof, preparation method thereof, and pharmaceutical composition for preventing or treating cancer containing same as active ingredient” (2013)

What was measured:
[1] = biological target: Transmembrane protease serine 4 (Homo sapiens) (UniProt Q9NRS4); experiment: (§1) Inhibition of TMPRSS4 serine protease domain (Val 205 to Leu 437 residues) (unknown origin) expressed in Escherichia coli BL21 (DE3) at 30 uM using […]-Gln-Ala-Arg-7-amido-4-methylcoumarin hydrochloride substrate and measured for 5 mins at 5 mins intervals by fluorescence based assay relative to control
Chain of Transmembrane protease serine 4 (Homo sapiens) (Q9NRS4 whole entry, the tested form may be a part): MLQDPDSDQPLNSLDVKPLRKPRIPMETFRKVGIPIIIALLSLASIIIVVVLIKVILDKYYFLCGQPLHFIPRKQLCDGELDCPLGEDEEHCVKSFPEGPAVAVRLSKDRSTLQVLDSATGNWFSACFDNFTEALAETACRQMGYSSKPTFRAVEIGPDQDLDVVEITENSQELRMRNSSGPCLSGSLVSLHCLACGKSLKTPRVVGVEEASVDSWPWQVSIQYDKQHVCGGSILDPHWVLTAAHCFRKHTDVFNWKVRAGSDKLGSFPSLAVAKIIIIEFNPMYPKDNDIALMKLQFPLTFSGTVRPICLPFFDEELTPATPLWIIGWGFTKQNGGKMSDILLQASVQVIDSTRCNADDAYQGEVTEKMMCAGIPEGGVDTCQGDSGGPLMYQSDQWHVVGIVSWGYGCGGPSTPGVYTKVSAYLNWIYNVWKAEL

[2] = biological target: Transmembrane protease serine 4 (Homo sapiens) (UniProt Q9NRS4); experiment: as §1, with “10” for “30”
[3] = biological target: Transmembrane protease serine 4 (Homo sapiens) (UniProt Q9NRS4); experiment: Inhibition of TMPRSS4 serine protease domain (Val 205 to Leu 437 residues) (unknown origin) expressed in Escherichia coli BL21 (DE3) using […]-Gln-Ala-Arg-7-amido-4-methylcoumarin hydrochloride substrate and measured for 5 mins at 5 mins intervals by fluorescence based assay relative to control
[4] = biological target: Transmembrane protease serine 4 (Homo sapiens) (UniProt Q9NRS4); experiment: as §1, with “100” for “30”
[5] = biological target: Transmembrane protease serine 4 (Homo sapiens) (UniProt Q9NRS4); experiment: Inhibition of TMPRSS4 (unknown origin) expressed in human SW480 cells assessed as reduction in cell migration at 0.8 uM incubated for 48 hrs by crystal violet staining based assay relative to control

Structure (SMILES)	inhibition [1] [%]	inhibition [2] [%]	inhibition [3]	inhibition [4] [%]	inhibition [5] [%]
N#Cc1cccc(NC(=O)c2cc(Cl)ccc2O)c1	47	12	Dose-dependent effect	88	–
O=C(Nc1cc(C(F)(F)F)c(Br)c(C(F)(F)F)c1)c1cc(Cl)ccc1O	85	58	Dose-dependent effect	–	–
O=C(Nc1cc(C(F)(F)F)cc(C(F)(F)F)c1)c1cccc(Cl)c1O	93	61	Dose-dependent effect	–	–
O=C(Nc1cc(Cl)c(Cl)c(Cl)c1)c1cc(Cl)ccc1O	23	6	Dose-dependent effect	–	–
Cc1ccc(O)c(C(=O)Nc2cc(C(F)(F)F)cc(C(F)(F)F)c2)c1	64	0	Dose-dependent effect	–	–
O=C(Nc1cc(C(F)(F)F)ccc1Br)c1cc(Cl)ccc1O	100	40	Dose-dependent effect	–	–
O=C(Nc1cc(C(F)(F)F)ccc1Cl)c1cc(Cl)ccc1O	99	64	Dose-dependent effect	100	–
O=C(Nc1cc(Cl)cc(Cl)c1)c1cc(Cl)ccc1O	58	15	Dose-dependent effect	–	–
O=C(Nc1ccc(F)c(C(F)(F)F)c1)c1cc(Cl)ccc1O	86	64	Dose-dependent effect	98	–
O=C(Nc1cc(C(F)(F)F)cc(C(F)(F)F)c1)c1cc([N+](=O)[O-])ccc1O	78	33	Dose-dependent effect	–	–
O=C(Nc1ccc(Br)c(C(F)(F)F)c1)c1cc(Cl)ccc1O	46 to 93	30 to 80	Dose-dependent effect	98	–
O=C(Nc1cc(C(F)(F)F)ccc1C(F)(F)F)c1cc(Cl)ccc1O	54	46	Dose-dependent effect	–	–
CC(=O)Oc1ccc(Cl)cc1C(=O)Nc1cc(C(F)(F)F)cc(C(F)(F)F)c1	4	0	Dose-dependent effect	–	–
O=C(Nc1cc(C(F)(F)F)cc(C(F)(F)F)c1)c1cc(Cl)ccc1OCc1ccccc1	6	0	Dose-dependent effect	–	–
O=C(Nc1cc(C(F)(F)F)cc(C(F)(F)F)c1)c1cc(-c2ccc(F)cc2F)ccc1O	31	5	Dose-dependent effect	–	–
Cc1csc(NC(=O)c2cc(Cl)ccc2O)n1	0	–	Dose-dependent effect	67	–
O=C(Nc1ccccn1)c1cc(Cl)ccc1O	0	–	Dose-dependent effect	11	–
N#Cc1ccc(O)c(C(=O)Nc2cc(C(F)(F)F)cc(C(F)(F)F)c2)c1	53	15	Dose-dependent effect	–	–
O=C(Nc1cc(C(F)(F)F)cc(C(F)(F)F)c1)c1cc2ccccc2cc1O	96	58	Dose-dependent effect	–	72
O=C(Nc1cc(C(F)(F)F)cc(C(F)(F)F)c1)c1cnc2ccccc2c1O	0	0	Dose-dependent effect	–	–
Nc1ccc(O)c(C(=O)Nc2cc(C(F)(F)F)cc(C(F)(F)F)c2)c1	30	3	Dose-dependent effect	–	–
O=C(NCc1cc(C(F)(F)F)cc(C(F)(F)F)c1)c1cc(Cl)ccc1O	63	36	Dose-dependent effect	–	–
O=C(Nc1ccncc1Cl)c1cc(Cl)ccc1O	8	–	Dose-dependent effect	–	–
O=C(Nc1cc(C(F)(F)F)cc(C(F)(F)F)c1Cl)c1cc(Cl)ccc1O	100	43	Dose-dependent effect	–	–
O=C(Nc1cc(C(F)(F)F)cc(C(F)(F)F)c1)c1cc(Br)ccc1O	84	54	Dose-dependent effect	–	–
Cc1cc(Cl)cc(C(=O)Nc2cc(C(F)(F)F)cc(C(F)(F)F)c2)c1O	78	33	Dose-dependent effect	–	–
O=C(Nc1ccc(C(F)(F)F)cc1)c1cc(Cl)ccc1O	100	22	Dose-dependent effect	–	–
Cc1c(C(F)(F)F)cc(NC(=O)c2cc(Cl)ccc2O)cc1C(F)(F)F	94	51	Dose-dependent effect	–	–

Results, then the compound that gave them:

inhibition [1] [%]	inhibition [2] [%]	inhibition [3]	inhibition [4] [%]	inhibition [5] [%]	Structure (SMILES)
74	29	Dose-dependent effect	–	–	O=C(Nc1cc(C(F)(F)F)cc(C(F)(F)F)c1)c1ccc(Cl)cc1O
44	–	Dose-dependent effect	56	–	Cc1cc(C)cc(NC(=O)c2cc(Cl)ccc2O)c1
55	0	Dose-dependent effect	–	–	O=C(Nc1cc(C(F)(F)F)cc(C(F)(F)F)c1)c1cc(F)ccc1O
59	37	Dose-dependent effect	–	–	O=C(Nc1ccc(C(F)(F)F)c(C(F)(F)F)c1)c1cc(Cl)ccc1O
21	0	Dose-dependent effect	–	–	NC(=O)c1ccc(O)c(C(=O)Nc2cc(C(F)(F)F)cc(C(F)(F)F)c2)c1
100	64	Dose-dependent effect	100	–	O=C(Nc1cc(Br)cc(C(F)(F)F)c1)c1cc(Cl)ccc1O
25	–	Dose-dependent effect	47	–	O=C(Nc1ccc(C(F)(F)F)cn1)c1cc(Cl)ccc1O
14	–	Dose-dependent effect	55	–	O=C(Nc1ccc(Cl)cn1)c1cc(Cl)ccc1O
35	–	Dose-dependent effect	21	–	O=C(Nc1ccnc(Cl)c1)c1cc(Cl)ccc1O
6	–	Dose-dependent effect	39	–	O=C(Nc1ccc(Cl)nc1)c1cc(Cl)ccc1O
0	0	Dose-dependent effect	–	–	CC(=O)Nc1ccc(O)c(C(=O)Nc2cc(C(F)(F)F)cc(C(F)(F)F)c2)c1
19	0	Dose-dependent effect	–	–	O=C(Nc1cc(C(F)(F)F)cc(C(F)(F)F)c1)c1cc(Cl)cnc1O
79	32	Dose-dependent effect	–	–	O=C(Nc1cc(C(F)(F)F)cc(C(F)(F)F)c1)c1ccc(C(F)(F)F)cc1O
91	37	Dose-dependent effect	–	–	O=C(Nc1cccc(C(F)(F)F)c1)c1cc(Cl)ccc1O
100	100	Dose-dependent effect	–	–	O=C(Nc1cc(C(F)(F)F)cc(C(F)(F)F)c1)c1cc(Cl)cc(Cl)c1O
61	–	Dose-dependent effect	100	–	O=C(Nc1nc(C(F)(F)F)cs1)c1cc(Cl)ccc1O
0	–	Dose-dependent effect	2	–	O=C(Nc1ncccn1)c1cc(Cl)ccc1O
0	–	Dose-dependent effect	0	–	O=C(Nc1ncc(C(F)(F)F)cc1Cl)c1cc(Cl)ccc1O
53	0	Dose-dependent effect	–	–	COc1ccc(O)c(C(=O)Nc2cc(C(F)(F)F)cc(C(F)(F)F)c2)c1
77	29	Dose-dependent effect	–	–	O=C(Nc1cccc(C(F)(F)F)c1C(F)(F)F)c1cc(Cl)ccc1O
13	–	Dose-dependent effect	75	–	O=C(Nc1ccccc1)c1cc(Cl)ccc1O
98	53	Dose-dependent effect	–	76	O=C(Nc1ccc(C(F)(F)F)cc1[N+](=O)[O-])c1cc(Cl)ccc1O
20	0	Dose-dependent effect	–	–	O=C(Nc1cc(C(F)(F)F)cc(C(F)(F)F)c1)c1ccccc1O
31	–	Dose-dependent effect	51	–	O=C(Nc1c(F)c(F)nc(F)c1F)c1cc(Cl)ccc1O
44	–	Dose-dependent effect	90	–	O=C(Nc1nccs1)c1cc(Cl)ccc1O
100	67 to 100	Dose-dependent effect	100	–	O=C(Nc1cc(C(F)(F)F)ccc1F)c1cc(Cl)ccc1O
0	–	Dose-dependent effect	0	–	Cc1cc(C)nc(NC(=O)c2cc(Cl)ccc2O)n1
80	56	Dose-dependent effect	–	–	COc1c(C(F)(F)F)cc(NC(=O)c2cc(Cl)ccc2O)cc1C(F)(F)F
29	–	Dose-dependent effect	69	–	N#Cc1ccc(NC(=O)c2cc(Cl)ccc2O)cc1
